Data reported in patent US12053470B2, “Pharmaceutical combination comprising an ALK inhibitor and a SHP2 inhibitor” (Novartis AG, priority 2017, dated 2024).

Tests used:
[1] = system: MGH049, MGH045-2A and MGH073-2B cells; assay: Cell colony formation assay (crystal violet, FIG. 1); format: cell-based, human; conditions: Compound No. 1 5 μM, 14 days
Excerpt: FIG. 1. […]. For each cell line, all dishes were fixed, stained and photographed at the same time.
The MGH049, MGH045-2A and MGH073-2B cell lines were established at Massachusetts General Hospital. MGH049 is described in Friboulet L, et al. Cancer Discov. 2014 June; 4(6):662-73. MGH045 is described in Friboulet L, et al. Cancer Discov. 2014 June; 4(6):662-73). MGH045-1A, is described in Science, 2014, December 19; 346(6216):1480-1).
All human lung cancer samples were obtained from patients with informed consent, and all procedures were carried out under an Institutional Review Board (IRB)-approved protocol. The cell lines were cultured in DMEM (ATCC) supplemented with 10% FBS, or in RPMI (ATCC) supplemented with 15% FBS.
Cell colony formation assays were used to assess cell viability and proliferation after compound treatments. Cells were plated into 6-well tissue culture plates (6×10^5 cells/well) in a total volume of 2 mL. After 24 hours, compounds were added to the plates. At the end points of the assays, cells were fixed, stained with crystal violet and photographed.
[…]. […] […].

[2] = system: Ceritinib resistant MGH049 cells; assay: Cell colony formation assay with ceritinib resistant MGH049 cells;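 on all read-outs here: tested compounds are SHP2 inhibitors given alone, colonies fixed and crystal violet stained, DMSO reference taken as the mean of six readings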; format: cell-based, human; conditions: 7 days; for activity at 3 µM: Homo sapiens, 168 h, compound of Table 1 (3 μM) alone, normalized to DMSO without compound = 100, read-out: Normalized Crystal Violet abs. (590 nm) DMSO
[3] = biological target: SHP2 (Homo sapiens (Human), UniProt Q06124); assay: SHP2 allosteric inhibition assay (DiFMUP prompt fluorescence); format: biochemical

Compound	IC50 [3] [nM]	effect on cell growth as a single agent [1]	effect on cell growth as a single agent ([2]; 3 μM, ceritinib-resistant cells)	activity at 3 µM [2] [%]
CC1(N)CCN(c2cnc(-c3cccc(Cl)c3Cl)c(N)n2)CC1 [Compound No. 1, 6-(4-amino-4-methylpiperidin-1-yl)-3-(2,3-dichlorophenyl)pyrazin-2-amine]	–	no effect on cell growth	no effect on cell growth	117
C[C@@H]1OCC2(CCN(c3cnc(-c4cccc(Cl)c4Cl)c(N)n3)CC2)[C@@H]1N [compound 7, (3S,4S)-8-(6-amino-5-(2,3-dichlorophenyl)pyrazin-2-yl)-3-methyl-2-oxa-8-azaspiro[4.5]decan-4-amine]	39	–	–	98.2
Nc1nc(N2CCC3(CCCN3)CC2)cnc1-c1cccc(Cl)c1Cl [compound 8, 3-(2,3-dichlorophenyl)-6-(1,8-diazaspiro[4.5]decan-8-yl)pyrazin-2-amine]	155	–	–	99.9
Nc1nc(N2CCC3(CCC[C@H]3N)CC2)cnc1-c1cccc(Cl)c1Cl [compound 9, (R)-8-(6-amino-5-(2,3-dichlorophenyl)pyrazin-2-yl)-8-azaspiro[4.5]decan-1-amine]	73	–	–	118
Nc1nc(N2CCC3(CC2)COC[C@H]3N)cnc1Sc1cccnc1C(F)(F)F [compound 10, (S)-8-(6-amino-5-((2-(trifluoromethyl)pyridin-3-yl)thio)pyrazin-2-yl)-2-oxa-8-azaspiro[4.5]decan-4-amine]	25	–	–	–
CC[C@@H]1OCC2(CCN(c3cnc(Sc4ccnc(N)c4Cl)c(N)n3)CC2)[C@@H]1N [compound 17, (3S,4S)-8-(6-amino-5-((2-amino-3-chloropyridin-4-yl)thio)pyrazin-2-yl)-3-ethyl-2-oxa-8-azaspiro[4.5]decan-4-amine]	9	–	–	29.4
C[C@@H]1OCC2(CCN(c3cnc(Sc4cc(N)nc(Cl)c4Cl)cn3)CC2)[C@@H]1N [compound 21, (3S,4S)-8-(5-((6-amino-2,3-dichloropyridin-4-yl)thio)pyrazin-2-yl)-3-methyl-2-oxa-8-azaspiro[4.5]decan-4-amine]	14	–	–	48.2
Cn1c(N2CCC3(CCC[C@H]3N)CC2)nc2n[nH]c(-c3cccc(Cl)c3Cl)c2c1=O [compound 37, (R)-6-(1-amino-8-azaspiro[4.5]decan-8-yl)-3-(2,3-dichlorophenyl)-5-methyl-2,5-dihydro-4H-pyrazolo[3,4-d]pyrimidin-4-one]	26	–	–	45
Nc1nc(N2CCC3(CC2)COC[C@H]3N)cnc1Sc1cccc(NC(=O)c2c(O)nc3n(c2=O)CCCC3)c1Cl [compound 53, (S)-N-(3-((3-amino-5-(4-amino-2-oxa-8-azaspiro[4.5]decan-8-yl)pyrazin-2-yl)thio)-2-chlorophenyl)-2-hydroxy-4-oxo-6,7,8,9-tetrahydro-4H-pyrido[1,2-a]pyrimidine-3-carboxamide]	–	–	–	46.5
CN1C(=O)C(C(=O)Nc2cccc(Sc3ncc(N4CCC(C)(N)CC4)nc3N)c2Cl)=C(O)C1Cc1ccccc1 (stereo not drawn) [compound 54, N-(3-((3-amino-5-(4-amino-4-methylpiperidin-1-yl)pyrazin-2-yl)thio)-2-chlorophenyl)-5-benzyl-4-hydroxy-1-methyl-2-oxo-2,5-dihydro-1H-pyrrole-3-carboxamide]	–	–	–	132

Second part, led by results:

IC50 [3] [nM]	Compound	effect on cell growth as a single agent [1]	effect on cell growth as a single agent ([2]; 3 μM, ceritinib-resistant cells)	activity at 3 µM [2] [%]
9	CC1CCC2(CCN(c3cnc(Sc4ccnc(N)c4Cl)c(N)n3)CC2)[C@@H]1N (stereo partly drawn) [compound 15, (1R)-8-(6-amino-5-((2-amino-3-chloropyridin-4-yl)thio)pyrazin-2-yl)-2-methyl-8-azaspiro[4.5]decan-1-amine]	–	–	31
4.5	Nc1nccc(Sc2cnc(N3CCC4(CC3)C[C@@H](O)C[C@H]4N)cn2)c1Cl [compound 18, (2R,4R)-4-amino-8-(5-((2-amino-3-chloropyridin-4-yl)thio)pyrazin-2-yl)-8-azaspiro[4.5]decan-2-ol]	–	–	32.3
6	C[C@H]1C[C@@H](N)C2(CCN(c3cnc(Sc4ccnc(N)c4Cl)cn3)CC2)C1 [compound 19, (1R,3R)-8-(5-((2-amino-3-chloropyridin-4-yl)thio)pyrazin-2-yl)-3-methyl-8-azaspiro[4.5]decan-1-amine]	–	–	96.1
6	CC1CCC2(CCN(c3cnc(Sc4ccnc(N)c4Cl)cn3)CC2)[C@@H]1N (stereo partly drawn) [compound 20, (1R)-8-(5-((2-amino-3-chloropyridin-4-yl)thio)pyrazin-2-yl)-2-methyl-8-azaspiro[4.5]decan-1-amine]	–	–	54.7
8	C[C@@H]1OCC2(CCN(c3cnc(Sc4ccnc(N)c4Cl)cn3)CC2)[C@@H]1N [compound 22, (3S,4S)-8-(5-((2-amino-3-chloropyridin-4-yl)thio)pyrazin-2-yl)-3-methyl-2-oxa-8-azaspiro[4.5]decan-4-amine]	–	–	19.5
6	Nc1nccc(Sc2cnc(N3CCC4(CC3)COC[C@H]4N)cn2)c1Cl [compound 24, (S)-8-(5-((2-amino-3-chloropyridin-4-yl)thio)pyrazin-2-yl)-2-oxa-8-azaspiro[4.5]decan-4-amine]	–	–	43.5
4	CC1(N)CCN(c2cnc(Sc3cccc(NC(=O)C4=C(O)CN(c5ccccc5)C4=O)c3Cl)c(N)n2)CC1 [compound 46, N-(3-((3-amino-5-(4-amino-4-methylpiperidin-1-yl)pyrazin-2-yl)thio)-2-chlorophenyl)-4-hydroxy-2-oxo-1-phenyl-2,5-dihydro-1H-pyrrole-3-carboxamide]	–	–	70.9
6	Nc1nc(N2CCC(N)(CF)CC2)cnc1Sc1cccc(NC(=O)c2c(O)nc3n(c2=O)CCCC3)c1Cl [compound 51, N-(3-((3-amino-5-(4-amino-4-(fluoromethyl)piperidin-1-yl)pyrazin-2-yl)thio)-2-chlorophenyl)-2-hydroxy-4-oxo-6,7,8,9-tetrahydro-4H-pyrido[1,2-a]pyrimidine-3-carboxamide]	–	–	94
5	Nc1nc(N2CCC(N)(CF)CC2)cnc1Sc1cccc(NC(=O)c2c(O)nc3ccccn3c2=O)c1Cl [compound 52, N-(3-((3-amino-5-(4-amino-4-(fluoromethyl)piperidin-1-yl)pyrazin-2-yl)thio)-2-chlorophenyl)-2-hydroxy-4-oxo-4H-pyrido[1,2-a]pyrimidine-3-carboxamide]	–	–	67.9
